Source: patent publication US4123613A, “Substituted pyrazines as inhibitors of platelet aggregation” (Societa Farmaceutici Italia S.p.A., priority 1976, dated 1978)
Converted amounts (≈) assume the structure as drawn. Where two headings read alike, the source gives them in different places.

Test system: platelet aggregation (rabbit platelets, ADP-induced)
Assay: ADP-induced platelet aggregation in vitro (turbidimetric method, rabbit platelet-rich plasma)
Format: cell-based
Details: for Percent inhibition of platelets aggregation / inhibition at 25 µg/mL / inhibition at 50 µg/mL / inhibition at 100 µg/mL / inhibition at 200 µg/mL: tartrate salt; for inhibition at 25 µg/mL / inhibition at 50 µg/mL / inhibition at 100 µg/mL / inhibition at 200 µg/mL: Platelet, read-out: Percent inhibition of platelets aggregation
Experimental: In the biological tests hereafter described, the products were assayed as the tartrate salts.
Male rabbits weighing 2.5-3.5 Kg were used. Fifty four ml of blood were withdrawn from the carotid artery of rabbits anaesthetized with ether.
The PRP was obtained by centrifugation at 400 g for 10 minutes. The concentration of the platelets was adjusted to 250,000/mm^3 by diluting the PRP with PPP prepared by a second centrifugation of the blood samples for about 10 minutes at 2000 g.
The aggregation experiments were generally performed within 1-2 h from the time of blood collection.
In the cuvette of the aggregometer, reagents were added as follows: 0.8 ml drug solution or saline, and 0.2 ml ADP, at the molar concentration of 2.2 × 10^-4. The turbidimetry was checked after 11/2, 3 and 6 minutes. The inhibition of the aggregation is given in the table below as percent of ADP controls at the three times.

[1] = 25 γ/ml, 90 seconds after ADP (2.2 × 10^-4)
[2] = 25 γ/ml, 180 seconds after ADP (2.2 × 10^-4)
[3] = 25 γ/ml, 360 seconds after ADP (2.2 × 10^-4)
[4] = 50 γ/ml, 90 seconds after ADP (2.2 × 10^-4)
[5] = 50 γ/ml, 180 seconds after ADP (2.2 × 10^-4)
[6] = 50 γ/ml, 360 seconds after ADP (2.2 × 10^-4)
[7] = 100 γ/ml, 90 seconds after ADP (2.2 × 10^-4)
[8] = 100 γ/ml, 180 seconds after ADP (2.2 × 10^-4)
[9] = 100 γ/ml, 360 seconds after ADP (2.2 × 10^-4)
[10] = 200 γ/ml, 90 seconds after ADP (2.2 × 10^-4)
[11] = 200 γ/ml, 180 seconds after ADP (2.2 × 10^-4)
[12] = 200 γ/ml, 360 seconds after ADP (2.2 × 10^-4)
[13] = inhibition of platelet aggregation, at all three times

| SMILES | Percent inhibition of platelets aggregation [1] | Percent inhibition of platelets aggregation [2] | Percent inhibition of platelets aggregation [3] | Percent inhibition of platelets aggregation [4] | Percent inhibition of platelets aggregation [5] | Percent inhibition of platelets aggregation [6] | Percent inhibition of platelets aggregation [7] | Percent inhibition of platelets aggregation [8] | Percent inhibition of platelets aggregation [9] | Percent inhibition of platelets aggregation [10] | Percent inhibition of platelets aggregation [11] | Percent inhibition of platelets aggregation [12] | activity (inhibition of platelet aggregation, in words) (at all three times) | other results |
| --- | --- | --- | --- | --- | --- | --- | --- | --- | --- | --- | --- | --- | --- | --- |
| CO[C@]12C[C@@H](CNc3nccnc3Cl)CN(C)[C@@H]1Cc1cn(C)c3cccc2c13 [355/898, 2-(10'methoxy-1',6'-dimethylergoline-8'β-methyl)amino-3-chloropyrazine] | 17% | 20% | 30% | 35% | 31% | 45% | 67% | 71% | 76% | 77% | 82% | 83% |  |  |
| CO[C@]12C[C@@H](CSc3cnccn3)CN(C)[C@@H]1Cc1cn(C)c3cccc2c13 [355/917, 2-(10'-methoxy-1',6'-dimethylergoline-8'β-methyl)thiopyrazine] |  |  |  |  |  |  |  |  | 10% | 15% | 12% | 35% | very low activity |  |
| COc1nccnc1SCC1CN(C)C2Cc3cn(C)c4cccc(c34)C2(OC)C1 (stereo not drawn) [355/918, 2-(10'-methoxy-1',6'-dimethylergoline-8'β-methyl)thio-3-methoxypyrazine] |  |  |  |  |  |  |  |  |  |  |  |  | very strong activity | inhibition at 25 µg/mL (Oryctolagus cuniculus, 25 γ/ml, 90 seconds after ADP (2.2 × 10^-4)): 25%; inhibition at 25 µg/mL (Oryctolagus cuniculus, 25 γ/ml, 180 seconds after ADP (2.2 × 10^-4)): 20%; inhibition at 25 µg/mL (Oryctolagus cuniculus, 25 γ/ml, 360 seconds after ADP (2.2 × 10^-4)): 26%; inhibition at 50 µg/mL (Oryctolagus cuniculus, 50 γ/ml, 90 seconds after ADP (2.2 × 10^-4)): 45%; inhibition at 50 µg/mL (Oryctolagus cuniculus, 50 γ/ml, 180 seconds after ADP (2.2 × 10^-4)): 31%; inhibition at 50 µg/mL (Oryctolagus cuniculus, 50 γ/ml, 360 seconds after ADP (2.2 × 10^-4)): 42%; inhibition at 100 µg/mL (Oryctolagus cuniculus, 100 γ/ml, 90 seconds after ADP (2.2 × 10^-4)): 80%; inhibition at 100 µg/mL (Oryctolagus cuniculus, 100 γ/ml, 180 seconds after ADP (2.2 × 10^-4)): 70%; inhibition at 100 µg/mL (Oryctolagus cuniculus, 100 γ/ml, 360 seconds after ADP (2.2 × 10^-4)): 80%; inhibition at 200 µg/mL (Oryctolagus cuniculus, 200 γ/ml, 90 seconds after ADP (2.2 × 10^-4)): 100%; inhibition at 200 µg/mL (Oryctolagus cuniculus, 200 γ/ml, 180 seconds after ADP (2.2 × 10^-4)): 100%; inhibition at 200 µg/mL (Oryctolagus cuniculus, 200 γ/ml, 360 seconds after ADP (2.2 × 10^-4)): 100%; IC50 (Oryctolagus cuniculus, inhibition of platelet aggregation, at all three times, read-out: ED50 (the source's name)): 55 to 70 µg/mL (≈ 130 to 165 µM) |
| CO[C@]12C[C@@H](CSc3nccnc3Cl)CN(C)[C@@H]1Cc1cn(C)c3cccc2c13 [355/915, 2-(10'-methoxy-1',6'-dimethylergoline-8'β-methyl)thio-3-chloropyrazine] | 10% | 10% | 10% | 20% | 15% | 25% | 75% | 75% | 80% | 100% | 100% | 100% | very strong activity | ED50 [13]: 55 to 70 µg/mL |
| COc1nccnc1NC[C@H]1CN(C)[C@@H]2Cc3cn(C)c4cccc(c34)[C@@]2(OC)C1 [355/899, 2-(10'-methoxy-1',6'-dimethylergoline-8'β-methyl)amino-3-methoxypyrazine] |  |  |  | 10% | 9% | 10% | 30% | 30% | 30% | 60% | 61% | 61% |  |  |
| CO[C@]12C[C@@H](CNc3cncc(Cl)n3)CN(C)[C@@H]1Cc1cn(C)c3cccc2c13 [355/900, 2-(10'-methoxy-1',6'-dimethylergoline-8'β-methyl)amino-6-chloropyrazine] | 10% | 10% | 10% | 40% | 25% | 30% | 80% | 70% | 80% | 100% | 100% | 100% | very strong activity | ED50 [13]: 55 to 70 µg/mL |
| CO[C@]12C[C@@H](CNc3cnccn3)CN(C)[C@@H]1Cc1cn(C)c3cccc2c13 [355/895, 2-(10'-methoxy-1',6'-dimethylergoline-8'β-methyl)aminopyrazine] |  |  |  |  |  | 5% | 10% | 12% | 20% | 50% | 55% | 62% | very low activity |  |
